Assay [1] has as its target T1, GST-tagged KRAS G12D (2-169) (Homo sapiens, UniProt P01116, G12D).
T1 construct: GST-tagged KRAS^G12D (2-169, Reaction Biology, MSC-11-539); purchased Reaction Biology MSC-11-539 (KRAS G12D); MSC-11-502 (SOS1cat)
Nature of the assay: Nucleotide exchange assay (NEA), HTRF of SOS-mediated GTP-DY-647P1 binding. Format: biochemical. Conditions: 5 nM GST-KRAS G12D, 20 nM SOScat, 150 nM GTP; compound 1 h at RT. A digest of the protocol: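 After 1 h RT preincubation of compound with KRAS, SOS1cat (20 nM final) and fluorescent GTP analog (150 nM) were added to 5 nM KRAS; HTRF (anti-GST Tb donor) followed at RT for up to 90 min. % inhibition relative to DMSO and no-SOS1 blank, 4-parameter curve fit.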
Background: Time-resolved FRET reads energy transfer from a long-lived donor to a nearby acceptor.

Assay [2] relates to AGS (KRAS G12D) cells, phospho-ERK. Kind of assay: pERK In Cell Western (ICW) assay (Method B). The format is cell-based. Conditions: Homo sapiens, 3 hours. The procedure: pERK ICW is a high throughput screening assay to evaluate the cellular potency of mutant KRAS small molecule inhibitors. KRAS mutant cell line AGS (KRAS^G12D) were purchased from ATCC and maintained in DMEM and RPMI medium supplemented with 10% fetal bovine serum and Penicillin/Streptomycin.
Cells grown in exponential phase were trypsinized, resuspended in fresh media, and viable cells were counted using a cell counter with Trypan Blue (BioRad TC20). Cells were seeded into 384-well plate (Greiner 781091) at density of 5,000 cells/well for AGS and allowed to grow overnight in a 37° C. CO2 incubator. The next day, compounds were dispensed into wells with a ½ log, 10-point serial dilution and top concentration of 10 μM using Tecan D300e dispenser and incubated for 3 hours in a 37° C. CO2 incubator. Cells were then fixed with paraformaldehyde (Electron Microscopy Sciences, 15710, 4% final concentration) for 30 min, permeabilized with wash buffer (1×PBS+0.1% Triton X-100) for 30 min and blocked with Odyssey blocking buffer (Li—COR 927-70001) for 1 hour, all at room temperature (RT). Phospho-ERK antibody (CST 4370L) was diluted 1:500 in Odyssey blocking+0.2% Tween 20 and incubated with cells overnight at 4° C. The next day, plates were washed 5× with wash buffer, incubated with IRDye 800 CW, Goat anti-Rabbit secondary antibody (Li—COR 926-32211, 1:500) and DRAQ5 (CST 4084L, 1:5,000) diluted in Odyssey blocking+0.2% Tween 20 for 1 hour, washed 5×, and imaged on an Odyssey CLx imaging system.
For data analysis, signal intensities from 800 (phosphor-ERK) and 700 (DRAQ5) channels were extracted, and phospho-ERK signals were normalized to DRAQ5 signals for each well and percent of DMSO control values were computed. Data were then imported into Graphpad Prism to compute half-maximal inhibitory concentrations (IC50) using a 4-parameter variable slope model. Z-factor for each plate was computed from signals derived from wells treated with either DMSO or 5 μM of Trametinib. AGS pERK ICW (Method B) IC50 (uM) values of selected compounds are depicted in Table 2 with compounds having a value 0.001 uM to 0.01 uM as ++++; >0.01 uM to 0.1 uM as +++; >0.1 uM to 1 uM as ++; 1 uM to 10 uM as + and >10 uM as NA.

In a further assay the target is T2, KRAS G12D/RAF1 (Homo sapiens, UniProt P01116, G12D).
T2 construct: KRAS (1-169) proteins were expressed in E. coli at 18° C; His6-MBP (N, cleaved yes); made in house; host or cells: E. coli
Kind of assay: Protein-protein interaction (PPI) HTRF assay KRAS G12D/RAF1. The note with it: KRAS G12D/RAF1, GppNHp-loaded KRAS; 30 minutes pre-incubation. Format: binding. A digest of the protocol:
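IC50 values come from the 665/615 HTRF ratio, scaled between no-compound (0% inhibition) and untagged RAF1 (100%). GppNHp-exchanged, biotinylated RAS (1-169) solution at 16 nM met compound for 30 min at room temperature. Then 16 nM His-tagged RAF1 (52-131) donor solution was added and incubated 1 h.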

A value given as a limit tells only on which side of the number the result lay.

Regarding `Oc1ccc(Cl)c2c1C1(CC2)Cc2nc(OC[C@@]34CCCN3C[C@H](F)C4)nc(N3CCCCCC3)c2CO1` (mixture of isomers) [Compound 9, 4-(azepan-1-yl)-7′-chloro-2-[[rac-(2R,8S)-2-fluoro-1,2,3,5,6,7-hexahydropyrrolizin-8-yl]methoxy]spiro[5,8-dihydropyrano[4,3-d]pyrimidine-7,3′-indane]-4′-ol], the IC50 (usually the concentration that gives 50% inhibition) in assay [1] was in the range of 1000 to 20000 nM; in assay [2], 1 to 10 µM.
As for `CN(C)C(=O)c1cc2n(n1)CCCN(c1nc(OC[C@@]34CCCN3C[C@H](F)C4)nc3c1COC1(CCc4ccc(OC(F)F)cc41)C3)C2` (mixture of isomers) [Compound 41, 5-[6′-(difluoromethoxy)-2-[[rac-(2R,8S)-2-fluoro-1,2,3,5,6,7-hexahydropyrrolizin-8-yl]methoxy]spiro[5,8-dihydropyrano[4,3-d]pyrimidine-7,1′-indane]-4-yl]-N,N-dimethyl-4,6,7,8-tetrahydropyrazolo[1,5-a][1,4]diazepine-2-carboxamide], the figures for the IC50 in assay [1] and in assay [2] were 1000 to 20000 nM and over 10 µM, respectively.
Regarding `CN(C)C(=O)c1cc2n(n1)CCCN(c1nc(OC[C@@]34CCCN3C[C@H](F)C4)nc3c1COC1(CCc4c(OC(F)F)cccc41)C3)C2` (mixture of isomers) [Compound 48, 5-[4′-(difluoromethoxy)-2-[[rac-(2R,8S)-2-fluoro-1,2,3,5,6,7-hexahydropyrrolizin-8-yl]methoxy]spiro[5,8-dihydropyrano[4,3-d]pyrimidine-7,1′-indane]-4-yl]-N,N-dimethyl-4,6,7,8-tetrahydropyrazolo[1,5-a][1,4]diazepine-2-carboxamide], the IC50 in assay [1] was 1000 to 20000 nM; in assay [2], over 10 µM.
As for `CN(C)C(=O)c1cc2n(n1)CCCN(c1nc(OC[C@@]34CCCN3C[C@H](F)C4)nc3c1CN(C)[C@]1(CCCc4ccc(O)cc41)C3)C2` [Compound 39B, 5-[(7R)-2-[[(2R,8S)-2-fluoro-1,2,3,5,6,7-hexahydropyrrolizin-8-yl]methoxy]-7′-hydroxy-6-methyl-spiro[5,8-dihydropyrido[4,3-d]pyrimidine-7,1′-tetralin]-4-yl]-N,N-dimethyl-4,6,7,8-tetrahydropyrazolo[1,5-a][1,4]diazepine-2-carboxamide], the values for the IC50 in assay [1] and in assay [2] were 1000 to 20000 nM and over 10 µM, respectively.
The like results for `CN1Cc2c(nc(OC[C@@]34CCCN3C[C@H](F)C4)nc2N2CCC[C@]3(C2)NC(=O)NC3=O)C[C@]12CCc1cccc(F)c12` [Compound 66, (5R)-9-[(7S)-7′-fluoro-2-[[(2R,8S)-2-fluoro-1,2,3,5,6,7-hexahydropyrrolizin-8-yl]methoxy]-6-methyl-spiro[5,8-dihydropyrido[4,3-d]pyrimidine-7,1′-indane]-4-yl]-1,3,9-triazaspiro[4.5]decane-2,4-dione] were, in that order, 10 to 100 nM and over 10 µM.
Regarding `CN1Cc2c(nc(OC[C@@]34CCCN3C[C@H](F)C4)nc2N2CCC[C@]3(C2)NC(=O)NC3=O)C[C@]12CCc1c(F)ccc(F)c12` [Compound 67, (5R)-9-[(7S)-4′,7′-difluoro-2-[[(2R,8S)-2-fluoro-1,2,3,5,6,7-hexahydropyrrolizin-8-yl]methoxy]-6-methyl-spiro[5,8-dihydropyrido[4,3-d]pyrimidine-7,1′-indane]-4-yl]-1,3,9-triazaspiro[4.5]decane-2,4-dione], the IC50 in assay [1] is 10 to 100 nM; in assay [2], over 10 µM.
For `CN1Cc2c(nc(OC[C@@]34CCCN3C[C@H](F)C4)nc2N2CCC[C@]3(C2)NC(=O)NC3=O)C[C@]12CCc1c(F)cccc12` [Compound 68, (5R)-9-[(7S)-4′-fluoro-2-[[(2R,8S)-2-fluoro-1,2,3,5,6,7-hexahydropyrrolizin-8-yl]methoxy]-6-methyl-spiro[5,8-dihydropyrido[4,3-d]pyrimidine-7,1′-indane]-4-yl]-1,3,9-triazaspiro[4.5]decane-2,4-dione], the IC50 in assay [1] was 10 to 100 nM; in assay [2], over 10 µM.
On to `CN1Cc2c(nc(OC[C@@]34CCCN3C[C@H](F)C4)nc2N2CCC[C@]3(C2)NC(=O)NC3=O)C[C@]12CCc1cccc(Cl)c12` [Compound 70, (5R)-9-[(7S)-7′-chloro-2-[[(2R,8S)-2-fluoro-1,2,3,5,6,7-hexahydropyrrolizin-8-yl]methoxy]-6-methyl-spiro[5,8-dihydropyrido[4,3-d]pyrimidine-7,1′-indane]-4-yl]-1,3,9-triazaspiro[4.5]decane-2,4-dione], for which the IC50 in assay [1] was 10 to 100 nM; in assay [2], 1 to 10 µM.
Regarding `CCN1Cc2c(nc(OC[C@@]34CCCN3C[C@H](F)C4)nc2N2CCCn3nc(C(=O)N(C)C)c(Cl)c3C2)C[C@]12CCCc1ccccc12` [Compound 100, 3-chloro-5-[(7S)-6-ethyl-2-[[(2R,8S)-2-fluoro-1,2,3,5,6,7-hexahydropyrrolizin-8-yl]methoxy]spiro[5,8-dihydropyrido[4,3-d]pyrimidine-7,1′-tetralin]-4-yl]-N,N-dimethyl-4,6,7,8-tetrahydropyrazolo[1,5-a][1,4]diazepine-2-carboxamide], the results for the IC50 (in assay [1]; against KRAS G12D/RAF1) were 10 to 100 nM and over 100000 nM, respectively.
Taken in the same sequence, the figures for “[5-[(7S)-4′-chloro-2-[[(2R,8S)-2-fluoro-1,2,3,5,6,7-hexahydropyrrolizin-8-yl]methoxy]spiro[5,8-dihydropyrano[4,3-d]pyrimidine-7,1′-indane]-4-yl]-4,6,7,8-tetrahydropyrazolo[1,5-a][1,4]diazepin-2-yl]-pyrrolidin-1-yl-methanone [Compound 34]” were under 10 nM and over 100000 nM.

The values above are taken from patent US11912723B2, “KRAS modulators and uses thereof” (Quanta Therapeutics, Inc., priority 2022, dated 2024).
